Several values for one entry are separate records, joined by “and”; a condition that tells them apart may be missing. Identical values can stand only once. Like-named read-outs stand apart in the source and are kept apart here.

The source of these data is article PMC10223284, “Category-Based Toxicokinetic Evaluations of Data-Poor Per- and Polyfluoroalkyl Substances (PFAS) using Gas Chromatography Coupled with Mass Spectrometry” (Toxics, 2023).

Data set [1] can be described thus: Hepatic metabolic stability (hepatocyte clearance) assay, substrate depletion. The format is in vitro ADME, human. Conditions: both sexes, human, hepatocytes. The gist of the method:
(§1)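 Pooled 50-donor human cryopreserved hepatocytes (50,000 cells/100 μL) incubated with 1 μM compound at 37 °C with shaking. Parent loss quantified against internal standards over time to T240 in triplicate; T½ and Clint (μL/min/million cells) from ln concentration vs time, corrected for abiotic loss in cell-free and inactivated-hepatocyte controls.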

Data set [2] concerns pooled human cryopreserved primary hepatocyte suspensions. The description is as above. The format is in vitro ADME. To be noted: for Linear Regression Results, Best-Fit Values, Slope: hepatocyte time course; for Clint.1.Med: s9. In a few lines:
as §1

Data set [3] can be described thus: In vitro-in vivo extrapolation (IVIVE) to Css and administered equivalent dose (AED). Further details: species or system human. Conditions: for Clhep: IVIVE, hepatocyte Clint scaled to whole-liver clearance; for AED: administered equivalent dose from LOEC and Css; for Fub: fub=fup/(B:P), Fub set to 1 if needed; for CLint: scaled with HPGL 110 mill cells/g, Vl 1596 g. In a few lines: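 Measured plasma protein binding (fup) and hepatocyte Clint served as IVIVE inputs to estimate human steady-state plasma concentration (Css). fup was converted to blood unbound fraction using blood:plasma partitioning, and Clint was scaled to whole-liver clearance (L/h). AEDs were derived by combining Css with published in vitro lowest-observed effective concentrations.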

The next data set can be described thus: in vitro. Conditions: both, human, plasma.
For data set [4], the system named is human plasma. Conditions: for Mean fu: plasma.
Data set [5] has as its system human plasma. Conditions: for PPB_Stab_Fail / % remaining_PPB: plasma.
Procedure: Three replicates were run per experiment, with 4NT included as a reference compound in each to evaluate assay performance. All PFAS and 4NT, prepared at a 3 mM working stock, were added to human plasma to achieve a final, thoroughly mixed assay concentration of 10 μM, incubated at 37 °C for 1 h with shaking. […] After UC, the aqueous fraction (AF; i.e., supernatant devoid of plasma proteins/lipoproteins/fatty acids) was collected and transferred to a new tube. The second aliquot maintained at 37 °C was collected (T5hr). At the relevant time points, each volume of sample was combined with 3 volumes of vigorously mixed ice-cold acetonitrile with the labeled IS and stored for 10 min at −20 °C prior to centrifugation at 12,000× g for 10 min at 4 °C. The supernatant was collected and stored at <−70 °C until quantitative analysis. […] Furthermore, chemical stability in plasma over the assay time course was assessed using the T1hr and T5hr samples.
Percent chemical remaining at the end of the UC assay (T5hr/T1hr) was used to remove unstable chemicals from further evaluation.
Another data set relates to human primary cells. Conditions: cited from earlier work.
Data set [6] is described as follows: Abiotic loss in negative controls of the hepatocyte clearance assay (cell-free media, metabolically inactivated hepatocytes). Conditions: for HT BkgdCl, Slope: heat treated hepatocytes control; for HT BkgdCl, Slope / No Cells BkgdCl, Slope: 0 vs 240 min; for No Cells BkgdCl, Slope: no cells control. It counts as in vitro ADME. In a few lines:
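Test compound at 1 μM incubated at 37 °C with shaking in complete William's medium E, either cell-free or with metabolically inactivated hepatocytes, then quenched with ice-cold acetonitrile for quantitative analysis.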

The mark [7] stands for this setting: Assuming 1 mg/kg/day dose rate, BW 70 kg.
[8] abbreviates: human steady-state plasma concentration, assuming 1 mg/kg/day dosage.
[9] abbreviates: Fraction Unbound (fu), Run-specific Avg.
The mark [10] stands for this setting: BioSeek lowest-observed effect concentration used for AED.
[11] abbreviates: minimum lowest-observed effect concentration, BioSeek platform.
Where [12] appears, read: flag for stability failure in hepatocyte clearance assay controls (1 or Fst = fail, 0 = pass).

As to `OCC(F)(F)OC(F)(F)C(F)(F)OC(F)(F)CO` [1H,1H,8H,8H-Perfluoro-3,6-dioxaoctane-1,8-diol], the half-life (commonly how long it takes for the measured level to halve) at 1 μM in data set [1] was found to be 3.44 h; in data set [6] (buffer), 6.95 h. Moreover, the hepatocyte CLint (in general, a measure of how fast metabolising enzymes remove a compound, apart from limits set by blood flow) at 1 μM in data set [1] (Bkgd Adj Clint) was found to be 6.72 µL/min/1e6 cells; in data set [1] (Bkgd-Sub Clearance (µL/min/106 hepatocytes)), 6.72 µL/min/1e6 cells; in data set [1] (Bkgd_adj_Clint), 6.72 µL/min/1e6 cells; in data set [1] (In Vitro Clint), 6.72 µL/min/1e6 cells; in data set [1] (Linear Regression Results, Best-Fit Values, Clearance), 6.72 µL/min/1e6 cells; in data set [1] (Unadj Clint), 6.72 µL/min/1e6 cells. The hepatocyte CLint at 1 μM in data set [1] (Unadj in vitro Clint) worked out at 6.72 µL/min/1e6 cells. Besides, in data set [2], the “Linear Regression Results, Best-Fit Values, Slope” value is recorded as -0.003361. This compound gave a Clint.1.Med in data set [2] (human) of 0. Besides, the Css in data set [3] (setting [7]) was 0.13 mg/L and 0.43 uM; in data set [3] (setting [8]), 0.43 µM. Further, the Clhep in data set [3] was 20.549 L/h. Moreover, the AED in data set [3] is 16.1536 mg/kg/day. In addition, the Fub in data set [3] is 0.3762. For the same compound, the CLint in data set [3] was 1179763 µL/min. Also, the fraction unbound (in general, the share of the substance not bound to proteins or other matrix) at 5 h, 10 μM in “in vitro” (Fraction Unbound (fu)) was determined as 0.188; in the data set “in vitro” (setting [9]) it was 0.21; in “in vitro” (Mean Fu), 0.207; in “in vitro” (Mean fu), 0.207. Further, the “Aqueous Fraction, Run-specific Avg” value in the data set with human plasma [4] (both, human, 5 h, 10 μM) was determined as 1857.99. For the same compound, in the data set on human plasma [4] (both, human, 5 h, 10 μM), the Fup.Med was 0.191. In the data set with human plasma [4] (both, human, 5 h, 10 μM), the Fup.point is given as 0.207. This compound showed a fup with human plasma [4] (both, human, 5 h, 10 μM) of 0.2069. The “Time 1 hr, Run-specific Avg” value in the data set with human plasma [5] (both, human, 10 μM) worked out at 8416.46. The Fstable.Med in the data set with human plasma [5] (both, human, 5 h, 10 μM) amounted to 0.999. In addition, the “Mean Stability” value with human plasma [5] (both, human, 5 h, 10 μM) came out at 1.067. The “Stability (T5hr/ T1hr), Run-specific Avg” value in the data set with human plasma [5] (both, human, 5 h, 10 μM) was 1.023. Besides, in the data set on human plasma [5] (both, human, 5 h, 10 μM), the “Time 5 hr, Run-specific Avg” value came to 8614.09. The PPB_Stab_Fail in the data set with human plasma [5] (both, human, 5 h, 10 μM) is listed as 0. Besides, the results for the LOEC with human primary cells (setting [10]) and with human primary cells (setting [11]) were 7.00 µM and 7 µM, respectively. Moreover, the “No Cells BkgdCl, Clearance” value in data set [6] (1 μM) is 3.324. Also, the “HT BkgdCl, Clearance” value in data set [6] (both, human, 1 μM) amounted to 0. In data set [6] (both, human, 120 min, 1 μM), this compound had a Hep_Stab_Fail of 0. Further, the “HT BkgdCl, Slope” value in data set [6] is on record as -0.0009212. Also, in data set [6], the “No Cells BkgdCl, Slope” value is listed as -0.00166.

`C=C(C)C(=O)OCC(F)(F)C(F)(F)C(F)(F)C(F)(F)C(F)(F)C(F)(F)C(F)(F)F` [1H,1H-Perfluorooctyl methacrylate]: in the data set with human plasma [4], the Fup.Med turned out to be 0.0638 and the Fup.point worked out at 0.0665. For the same compound, in the data set on human plasma [4] (human), the Mean fu is given as 0.1300. In the data set on human plasma [5], the Fstable.Med worked out at 0.042 and the Unstable result is “Y”. Further, in the data set on human plasma [5] (human), the “% remaining_PPB” value stood at 49% and the PPB_Stab_Fail came out at 0. This compound came in with a Hep_Stab_Fail in data set [6] (setting [12]) of 1.

Turning to `C=C(C)C(=O)OCCC(F)(F)C(F)(F)C(F)(F)C(F)(F)C(F)(F)C(F)(F)C(F)(F)C(F)(F)F` [8:2 Fluorotelomer methacrylate], in the data set with human plasma [4], the Fup.Med was 0.0461 and the Fup.point is 0.0503. Besides, in the data set on human plasma [4] (human), the Mean fu came out at 0.09. In addition, in the data set on human plasma [5], the Fstable.Med was 0.0797 and the Unstable entry is on record as “Y”. In the data set with human plasma [5] (human), the “% remaining_PPB” value was determined as 66% and the PPB_Stab_Fail turned out to be 0. In data set [6] (setting [12]), this compound displayed a Hep_Stab_Fail of 1.

`COC(=O)C(F)(F)C(F)(F)OC(F)(C(F)(F)F)C(F)(F)OC(F)=C(F)F` (centres unmarked) [Methyl perfluoro(3-(1-ethenyloxypropan-2-yloxy)propanoate)] had a fraction unbound at 5 h, 10 μM in the data set “in vitro” (setting [9]) of 0.0232. In “in vitro” (Mean Fu), this compound returned a fraction unbound at 5 h, 10 μM of 0.023. For the same compound, in the data set on human plasma [4] (both, human, 5 h, 10 μM), the “Aqueous Fraction, Run-specific Avg” value is listed as 200.27; the Fup.Med was 0.0161; the Fup.point worked out at 0.0235. Besides, in the data set on human plasma [5], the Unstable result is “Y”. In the data set with human plasma [5] (both, human, 10 μM), the “Time 1 hr, Run-specific Avg” value stood at 11859.81. Besides, in the data set with human plasma [5] (both, human, 5 h, 10 μM), the Fstable.Med amounted to 0.224; the “Mean Stability” value was determined as 0.836; the “Stability (T5hr/ T1hr), Run-specific Avg” value came to 0.726; the “Time 5 hr, Run-specific Avg” value turned out to be 8614.65. Besides, the PPB_Stab_Fail with human plasma [5] (both, human, 5 h, 10 μM) turned out to be 1. This compound also returned a Hep_Stab_Fail in data set [6] (both, human, 120 min, 1 μM) of 1.

On to `NC(=O)C(F)(F)C(F)(F)F` [Pentafluoropropionamide], for which the “Concentration (nM), Time 120 min” value in data set [2] (both, human, 120 min, 1 μM) worked out at 809.577 nM. In data set [2] (both, human, hepatocytes, 1 μM), the “In Vitro Clint” value worked out at 0.00 μL/min/10^6 cells and the “in vitro CLint” value is reported as 0 mL/min/106 cells. Besides, the “Linear Regression Results, Best-Fit Values, Slope” value in data set [2] is reported as -0.00227. Besides, in data set [2] (human, hepatocytes), the “Bkgd-Sub Clearance (µL/min/106 hepatocytes)” value worked out at 0.00 µL/min/106 hepatocytes, the Bkgd_adj_Clint stood at 0.00, the “Unadj Clint” value came to 0.00 and the “Unadj in vitro Clint” value was found to be 0.00. In data set [2] (human, hepatocytes), the “clearance rate in hepatocytes” value was “no clearance”. In data set [2] (human), the Clint.1.Med was determined as 0. In addition, the Css in data set [3] (setting [7]) was 0.44 mg/L and 2.69 uM. In addition, in data set [3], the Clhep is 0.000 L/h, the AED was 7.4314 mg/kg/day, the Fub is reported as 1 and the CLint was 0 µL/min. In data set [3] (setting [8]), the Css was 2.69 µM. Besides, the Css in data set [3] (human steady-state plasma concentration, assuming 1 mg/kg/day dosage, listed as pentafluoropropionamide) was 2.1 to 2.7 µM. This compound had a fraction unbound at 5 h, 10 μM in the data set “in vitro” (setting [9]) of 0.81. In the data set “in vitro” (Fraction Unbound (fu), replicates A, B, C), the fraction unbound at 5 h, 10 μM is 0.788. The compound further returned a fraction unbound at 5 h, 10 μM in “in vitro” (Mean Fu) of 0.809. The same compound showed a free fraction (fraction unbound) at 5 h, 10 μM in “in vitro” (Mean fu) of 0.809. For the same compound, in the data set with human plasma [4] (both, human, 5 h, 10 μM), the Fup.Med came to 0.754 and the Fup.point is listed as 0.789. Further, the Unstable entry in the data set with human plasma [5] was “Y”. Further, in the data set on human plasma [5] (both, human, 5 h, 10 μM), the Fstable.Med came to 0.19; the “Mean Stability” value is 0.711; the “Stability (T5hr/ T1hr), Run-specific Avg” value came out at 0.719; the PPB_Stab_Fail was found to be 0. Moreover, the LOEC with human primary cells (setting [10]) is 20.00 µM. In addition, the LOEC in the data set with human primary cells (setting [11]) is 20 µM. In addition, the “No Cells BkgdCl, Clearance” value in data set [6] (1 μM) is reported as 7.66. Further, the half-life at 1 μM in data set [6] (both sexes, human, hepatocytes) is 3.65 h. Further, the “HT BkgdCl, Clearance” value in data set [6] (both, human, 1 μM) was determined as 6.324. The Hep_Stab_Fail in data set [6] (both, human, 120 min, 1 μM) amounted to 0. In data set [6] (buffer), this compound had a half-life at 1 μM of 3.02 h. Further, in data set [6], the “HT BkgdCl, Slope” value is -0.003162 and the “No Cells BkgdCl, Slope” value is on record as -0.00383.
